Species on record: Rattus norvegicus
Test: Open TG-GATES - Regimen: Daily Repeat
Format: toxicity, organism-based, Sprague-Dawley
Design: regimen Daily Repeat, gender Male, age 6 weeks
Details: in vivo, po, route gavage; for APTT / Bas / Eos / Fbg / Hb / Lym / MCH / MCHC / MCV / Mono / Neu / PT / Plat / RBC / Ret / WBC: tissue Blood; for KIDNEY_L / KIDNEY_R / KIDNEY_TOTAL: tissue Kidney; for LIVER: tissue Liver; for ALP / ALT / AST / BUN / CRE / Ca / Cl / DBIL / GLC / IP / K / LDH / Na / PL / RALB / TBIL / TC / TG / TP / gamma-GTP: tissue Plasma
[1] = 0 mg/kg, 72 h, dose level Control, time 3 day
[2] = 0 mg/kg, […], dose level Control, time 7 day
[3] = 0 mg/kg, […], dose level Control, time 14 day
[4] = 0 mg/kg, […], dose level Control, time 28 day
[5] = 2 mg/kg, 72 h, dose level Low, time 3 day
[6] = 2 mg/kg, […], dose level Low, time 7 day
[7] = 2 mg/kg, […], dose level Low, time 14 day
[8] = 2 mg/kg, […], dose level Low, time 28 day

What does the source list for `OCCN1CCN(CCCN2c3ccccc3Sc3ccc(C(F)(F)F)cc32)CC1` [FLUPHENAZINE]?
TERMINAL_BW [1]: 233.9 g; APTT [1]: 16.9 s; Bas [1]: 0%; Eos [1]: 1%; Fbg [1]: 232.5 mg/dL; Hb [1]: 13.6 g/dL; Lym [1]: 77%; MCH [1]: 21.5 pg; MCHC [1]: 33.3%; MCV [1]: 64.4 fL; Mono [1]: 7.2%; Neu [1]: 15%; PT [1]: 12 s; Plat [1]: 126.3 x10_4/uL; RBC [1]: 632.2 x10_4/ul; Ret [1]: 6.2%; WBC [1]: 99.4 x10_2/uL; KIDNEY_L [1]: 1.1 g; KIDNEY_R [1]: 1.1 g; KIDNEY_TOTAL [1]: 2.2 g; LIVER [1]: 11.9 g; ALP [1]: 922 IU/L; ALT [1]: 35.2 IU/L; AST [1]: 60.2 IU/L; BUN [1]: 17.2 mg/dL; CRE [1]: 0.6 mg/dL; Ca [1]: 10.8 mg/dL; Cl [1]: 104.5 meq/L; DBIL [1]: 0.035 mg/dL; GLC [1]: 185 mg/dL; IP [1]: 8.5 mg/dL; K [1]: 4.9 meq/L; LDH [1]: 77.2 IU/L; Na [1]: 137.8 meq/L; PL [1]: 163 mg/dL; RALB [1]: 4 g/dL; TBIL [1]: 0.3 mg/dL; TC [1]: 86.2 mg/dL; TG [1]: 96.8 mg/dL; TP [1]: 5.8 g/dL; gamma-GTP [1]: 0.5 IU/L; TERMINAL_BW [2]: 262.6 g; TERMINAL_BW [3]: 300.9 g; TERMINAL_BW [4]: 402.6 g; APTT [2]: 16.3 s; Bas [2]: 0%; Eos [2]: 1%; Fbg [2]: 239.4 mg/dL; Hb [2]: 13.5 g/dL; Lym [2]: 80.6%; MCH [2]: 21.6 pg; MCHC [2]: 33.5%; MCV [2]: 64.4 fL; Mono [2]: 4%; Neu [2]: 15.2%; PT [2]: 11.9 s; Plat [2]: 114.7 x10_4/uL; RBC [2]: 627.6 x10_4/ul; Ret [2]: 5.2%; WBC [2]: 114 x10_2/uL; APTT [3]: 17.2 s; Bas [3]: 0%; Eos [3]: 0.6%; Fbg [3]: 235.6 mg/dL; Hb [3]: 14.2 g/dL; Lym [3]: 82.8%; MCH [3]: 20.3 pg; MCHC [3]: 33.3%; MCV [3]: 61.1 fL; Mono [3]: 5.4%; Neu [3]: 11%; PT [3]: 11.7 s; Plat [3]: 107.2 x10_4/uL; RBC [3]: 699.2 x10_4/ul; Ret [3]: 3.7%; WBC [3]: 145.4 x10_2/uL; APTT [4]: 17.2 s; Bas [4]: 0%; Eos [4]: 1%; Fbg [4]: 231 mg/dL; Hb [4]: 15.2 g/dL; Lym [4]: 84.8%; MCH [4]: 19.7 pg; MCHC [4]: 33.4%; MCV [4]: 58.8 fL; Mono [4]: 4.8%; Neu [4]: 9.8%; PT [4]: 11.8 s; Plat [4]: 92.5 x10_4/uL; RBC [4]: 774 x10_4/ul; Ret [4]: 2.7%; WBC [4]: 160.8 x10_2/uL; KIDNEY_L [2]: 1.2 g; KIDNEY_R [2]: 1.2 g; KIDNEY_TOTAL [2]: 2.3 g; KIDNEY_L [3]: 1.2 g; KIDNEY_R [3]: 1.2 g; KIDNEY_TOTAL [3]: 2.4 g; KIDNEY_L [4]: 1.5 g; KIDNEY_R [4]: 1.5 g; KIDNEY_TOTAL [4]: 2.9 g; LIVER [2]: 13.1 g; LIVER [3]: 13.9 g; LIVER [4]: 17.1 g; ALP [2]: 774.2 IU/L; ALT [2]: 30.4 IU/L; AST [2]: 61.6 IU/L; BUN [2]: 18.4 mg/dL; CRE [2]: 0.5 mg/dL; Ca [2]: 10.5 mg/dL; Cl [2]: 106.2 meq/L; DBIL [2]: 0.016 mg/dL; GLC [2]: 196.2 mg/dL; IP [2]: 8.4 mg/dL; K [2]: 4.6 meq/L; LDH [2]: 82.6 IU/L; Na [2]: 138.8 meq/L; PL [2]: 156 mg/dL; RALB [2]: 3.9 g/dL; TBIL [2]: 0.3 mg/dL; TC [2]: 79.4 mg/dL; TG [2]: 101 mg/dL; TP [2]: 5.9 g/dL; gamma-GTP [2]: 1.6 IU/L; ALP [3]: 734.4 IU/L; ALT [3]: 30.6 IU/L; AST [3]: 55.8 IU/L; BUN [3]: 19.8 mg/dL; CRE [3]: 0.5 mg/dL; Ca [3]: 11 mg/dL; Cl [3]: 102.6 meq/L; DBIL [3]: 0 mg/dL; GLC [3]: 186.6 mg/dL; IP [3]: 8.5 mg/dL; K [3]: 4.5 meq/L; LDH [3]: 97.4 IU/L; Na [3]: 135.8 meq/L; PL [3]: 166 mg/dL; RALB [3]: 4.2 g/dL; TBIL [3]: 0.3 mg/dL; TC [3]: 77 mg/dL; TG [3]: 181.8 mg/dL; TP [3]: 6.2 g/dL; gamma-GTP [3]: 1.4 IU/L; ALP [4]: 649.8 IU/L; ALT [4]: 32.2 IU/L; AST [4]: 57 IU/L; BUN [4]: 20.6 mg/dL; CRE [4]: 0.6 mg/dL; Ca [4]: 10.8 mg/dL; Cl [4]: 104.8 meq/L; DBIL [4]: 0.01 mg/dL; GLC [4]: 197.4 mg/dL; IP [4]: 7 mg/dL; K [4]: 4.5 meq/L; LDH [4]: 80 IU/L; Na [4]: 140.8 meq/L; PL [4]: 171.6 mg/dL; RALB [4]: 4.1 g/dL; TBIL [4]: 0.3 mg/dL; TC [4]: 74.6 mg/dL; TG [4]: 216 mg/dL; TP [4]: 6.4 g/dL; gamma-GTP [4]: 1 IU/L; TERMINAL_BW [5]: 226 g; APTT [5]: 16.5 s; Bas [5]: 0%; Eos [5]: 1%; Fbg [5]: 221.4 mg/dL; Hb [5]: 13.7 g/dL; Lym [5]: 80%; MCH [5]: 22.3 pg; MCHC [5]: 33.6%; MCV [5]: 66.3 fL; Mono [5]: 6.8%; Neu [5]: 12.6%; PT [5]: 12.2 s; Plat [5]: 101.3 x10_4/uL; RBC [5]: 613 x10_4/ul; Ret [5]: 5.3%; WBC [5]: 100.9 x10_2/uL; KIDNEY_L [5]: 1 g; KIDNEY_R [5]: 1 g; KIDNEY_TOTAL [5]: 2 g; LIVER [5]: 11.4 g; ALP [5]: 869.2 IU/L; ALT [5]: 36 IU/L; AST [5]: 69.6 IU/L; BUN [5]: 20.4 mg/dL; CRE [5]: 0.5 mg/dL; Ca [5]: 11 mg/dL; Cl [5]: 104.6 meq/L; DBIL [5]: 0.008 mg/dL; GLC [5]: 194.6 mg/dL; IP [5]: 8.5 mg/dL; K [5]: 4.8 meq/L; LDH [5]: 156.6 IU/L; Na [5]: 137.6 meq/L; PL [5]: 172.8 mg/dL; RALB [5]: 4.1 g/dL; TBIL [5]: 0.3 mg/dL; TC [5]: 85.2 mg/dL; TG [5]: 95 mg/dL; TP [5]: 5.9 g/dL; gamma-GTP [5]: 0.6 IU/L; TERMINAL_BW [6]: 257.2 g; TERMINAL_BW [7]: 299.4 g; TERMINAL_BW [8]: 362.5 g; APTT [6]: 16.8 s; Bas [6]: 0%; Eos [6]: 0.8%; Fbg [6]: 219.6 mg/dL; Hb [6]: 13.7 g/dL; Lym [6]: 83%; MCH [6]: 21 pg; MCHC [6]: 33.6%; MCV [6]: 62.5 fL; Mono [6]: 3%; Neu [6]: 13.2%; PT [6]: 12.1 s; Plat [6]: 103.7 x10_4/uL; RBC [6]: 652.6 x10_4/ul; Ret [6]: 4.5%; WBC [6]: 106.2 x10_2/uL; APTT [7]: 16.8 s; Bas [7]: 0%; Eos [7]: 0.4%; Fbg [7]: 223.2 mg/dL; Hb [7]: 14.3 g/dL; Lym [7]: 83.2%; MCH [7]: 20.6 pg; MCHC [7]: 33.5%; MCV [7]: 61.4 fL; Mono [7]: 5.4%; Neu [7]: 11%; PT [7]: 11.9 s; Plat [7]: 108 x10_4/uL; RBC [7]: 696 x10_4/ul; Ret [7]: 3%; WBC [7]: 149.6 x10_2/uL; APTT [8]: 17.2 s; Bas [8]: 0%; Eos [8]: 1%; Fbg [8]: 211.6 mg/dL; Hb [8]: 14.9 g/dL; Lym [8]: 84%; MCH [8]: 19.3 pg; MCHC [8]: 33.4%; MCV [8]: 57.7 fL; Mono [8]: 3.6%; Neu [8]: 11.8%; PT [8]: 12.1 s; Plat [8]: 95.6 x10_4/uL; RBC [8]: 775.2 x10_4/ul; Ret [8]: 2.4%; WBC [8]: 160.4 x10_2/uL; KIDNEY_L [6]: 1.1 g; KIDNEY_R [6]: 1.1 g; KIDNEY_TOTAL [6]: 2.2 g; KIDNEY_L [7]: 1.2 g; KIDNEY_R [7]: 1.1 g; KIDNEY_TOTAL [7]: 2.3 g; KIDNEY_L [8]: 1.3 g; KIDNEY_R [8]: 1.3 g; KIDNEY_TOTAL [8]: 2.6 g; LIVER [6]: 12.4 g; LIVER [7]: 13.5 g; LIVER [8]: 15.3 g; ALP [6]: 761.6 IU/L; ALT [6]: 30.4 IU/L; AST [6]: 60.4 IU/L; BUN [6]: 18.8 mg/dL; CRE [6]: 0.5 mg/dL; Ca [6]: 10.4 mg/dL; Cl [6]: 105.2 meq/L; DBIL [6]: 0.004 mg/dL; GLC [6]: 187.6 mg/dL; IP [6]: 7.9 mg/dL; K [6]: 4.7 meq/L; LDH [6]: 83.6 IU/L; Na [6]: 137.6 meq/L; PL [6]: 157.6 mg/dL; RALB [6]: 4 g/dL; TBIL [6]: 0.3 mg/dL; TC [6]: 74 mg/dL; TG [6]: 146.6 mg/dL; TP [6]: 5.9 g/dL; gamma-GTP [6]: 1.4 IU/L; ALP [7]: 728.4 IU/L; ALT [7]: 28 IU/L; AST [7]: 56.6 IU/L; BUN [7]: 19.6 mg/dL; CRE [7]: 0.6 mg/dL; Ca [7]: 10.8 mg/dL; Cl [7]: 103.4 meq/L; DBIL [7]: 0 mg/dL; GLC [7]: 179.4 mg/dL; IP [7]: 7.7 mg/dL; K [7]: 4.4 meq/L; LDH [7]: 92.4 IU/L; Na [7]: 135.2 meq/L; PL [7]: 147.8 mg/dL; RALB [7]: 4.1 g/dL; TBIL [7]: 0.2 mg/dL; TC [7]: 66.8 mg/dL; TG [7]: 160.2 mg/dL; TP [7]: 6 g/dL; gamma-GTP [7]: 1 IU/L; ALP [8]: 528.8 IU/L; ALT [8]: 29.6 IU/L; AST [8]: 59.6 IU/L; BUN [8]: 19.8 mg/dL; CRE [8]: 0.6 mg/dL; Ca [8]: 10.5 mg/dL; Cl [8]: 106.8 meq/L; DBIL [8]: 0.002 mg/dL; GLC [8]: 179.2 mg/dL; IP [8]: 6.6 mg/dL; K [8]: 4.4 meq/L; LDH [8]: 79.6 IU/L; Na [8]: 139.8 meq/L; PL [8]: 151.4 mg/dL; RALB [8]: 4.1 g/dL; TBIL [8]: 0.2 mg/dL; TC [8]: 73.2 mg/dL; TG [8]: 131 mg/dL; TP [8]: 6.3 g/dL; gamma-GTP [8]: 2 IU/L
